This is an account of results in patent US8697747B2, “Enhancing coagulation or reducing fibrinolysis” (THe UAB Research Foundation, priority 2009, dated 2014).

In test [1] the test system is prothrombin deficient plasma. Kind of test: Thrombelastography in prothrombin deficient plasma with purified prothrombin. The following applies: mean ± SD. The test is classed as biochemical, human. The procedure: Plasma types, purified proteins and compounds. Prothrombin deficient plasma (George King Bio-Medical, Overland Park, Kans.) anticoagulated with sodium citrate was utilized for experimentation concerning the effects of CORM-2 on prothrombin. Purified prothrombin (Enzyme Research Laboratories, South Bend, Ind.) that was 95% pure (10.4 mg/mL, 11.1 U/mg, suspended in 20 mM Tris-HCl in 0.1M NaCl at pH 7.4) was used for experimentation. Fibrinogen deficient plasma (Affinity Biologicals, Inc., Ancaster, Ontario, Canada) anticoagulated with sodium citrate was used in experiments investigating the effects of CORM-2 on fibrinogen. […] CORM-2 and dimethyl sulfoxide (DMSO) were obtained from Sigma-Aldrich, St. Louis, Mo.
Exposure of purified prothrombin to CORM-2. In order to determine if pre-exposure of prothrombin with CORM-2 would enhance coagulation kinetics in prothrombin deficient plasma, 396 μL of pure prothrombin solution was combined with 4 μL of either DMSO or CORM-2 in DMSO for a final concentration of 0 or 100 μM CORM-2. This solution was incubated for 5 min at 37° C. prior to being added to prothrombin deficient plasma for thrombelastographic analyses. A volume of 3.1 μL of incubated solution was added to the final reaction mixture subsequently presented for a final prothrombin activity of 1 U/mL.
Prothrombin deficient plasma experiments. The final volume for experiments involving prothrombin deficient plasma was 359.1-360.7 μL. In experiments involving pre-exposure of prothrombin to 0 or 100 μM CORM-2 (n=7 per concentration), the sample consisted of 326 μL of prothrombin deficient plasma, 3.1 μL of prothrombin solution, 10 μL of tissue factor reagent (0.1% final concentration in dH2O; Instrumentation Laboratory, Lexington, Mass.), and 20 μL of 200 mM CaCl2. In experiments involving simple CORM-2 addition (positive control) to the reactants, the sample mixture consisted of 324 μL of prothrombin deficient plasma, 3.1 μL of prothrombin solution, 3.6 μL of DMSO or CORM-2 in DMSO (final CORM-2 concentration 0 or 100 μM, n=8 per concentration), 10 μL of tissue factor reagent (0.1% final concentration), and 20 μl of 200 mM CaCl2.
Thrombelastographic monitoring. Plasma sample mixtures were placed in a disposable cup in a computer-controlled THROMBELASTOGRAPH® hemostasis system (Model 5000, Haemoscope Corp., Niles, Ill.), with addition of CaCl2 as the last step to initiate clotting. Data were collected until clot strength stabilized. The following previously described variables (Examples 1-3) were determined at 37° C.: Time to maximum rate of thrombus generation (TMRTG): This is the time interval (sec) observed prior to maximum speed of clot growth. Maximum rate of thrombus generation (MRTG): This is the maximum velocity of clot growth observed (dynes/cm^2/sec). Total Thrombus Generation (TTG): This is the total area under the velocity curve during clot growth (dynes/cm^2), representing the amount of clot strength generated during clot growth.
Statistical Analyses. Data obtained from experiments involving prothrombin deficient plasma are presented as mean±SD. Typically, n=6-8 provides statistical power >0.8 in similar analyses (Examples 1 and 2). Analyses of the effects of CORM-2 on thrombelastographic variables were conducted using unpaired, two-tailed Student's t-tests. A P value of <0.05 was considered significant. Graphical representation of the thrombelastographic data derived from experiments with […] deficient plasma was generated with commercially available software (SigmaPlot 11.0, Systat Software, Inc., San Jose, Calif.). Coagulation kinetic model equations were derived with the same software. The difference between the mean values of MRTG or TTG in samples exposed to 0 or 100 μM CORM-2 were determined and expressed as percent difference secondary to CORM-2 exposure in the […] deficient plasma experiments.

Test [2] relates to factor VIII deficient plasma. Kind of test: Thrombelastography, factor VIII deficient plasma. Format: biochemical, human. The following applies: FVIII deficient plasma, 11 individuals, mean ± SD. The procedure: Plasma deficient (<1% normal activity) in factor VIII (FVIII; 11 individuals), factor IX (FIX; 5 individuals), or factor VII (FVII; 4 individuals) was obtained from anonymous donors (George King Bio-Medical, Overland Park, Kans.) and was anticoagulated with sodium citrate. The final volume for all subsequently described plasma sample mixtures was […]. Sample composition consisted of […] of plasma, […] of tissue factor (0.1% final concentration in 0.9% NaCl; Diagnostica Stago, Asnieres, France), 3.6 mL of dimethyl sulfoxide (DMSO) or DMSO with CORM-2 ([…]; Sigma-Aldrich, St. Louis, Mo.), and 20 mL of […] CaCl2. […] (Motterlini et al. 2005). While CORM-2 decays slowly in DMSO, DMSO was added to the dry compound just prior to placement into the plasma mixture.
Plasma sample mixtures were placed in a disposable cup in a computer-controlled THROMBELASTOGRAPH® hemostasis system (Model 5000; Haemoscope Corp., Niles, Ill.), with addition of CaCl2 as the last step to initiate clotting. Data were collected until clot strength stabilized (maximum amplitude).
Statistical analyses. […] A paired student's t-test was used to analyze the effects of CORM-2 exposure in FVIII deficient individuals. The results of the FIX and FVII deficient groups were presented but not statistically analyzed secondary to the small number of individuals in each cohort. […] Statistical analyses and graphical representation of the data were generated with commercially available software (SigmaPlot 11.0; Systat Software Inc., San Jose, Calif.; CorelDRAW 12.0; Corel Corp., Ottawa, Ontario, Canada). A P value of less than 0.05 was considered significant.

The mark [3] stands for this setting: 100 μM CORM-2 added to prothrombin deficient plasma mixed with prothrombin, n=8.
Where [4] appears, read: purified prothrombin pre-exposed to 100 μM CORM-2, then added to prothrombin deficient plasma, n=7.

In the case of `[C-]#[O+].[C-]#[O+].[C-]#[O+].[C-]#[O+].[C-]#[O+].[C-]#[O+].[Cl][Ru][Cl].[Cl][Ru][Cl]` [CORM-2, tricarbonyldichlororuthenium (II) dimer], the “MRTG (maximum rate of thrombus generation)” value in test [1] (setting [3]) was 9.17 ± 0.36 dynes/cm^2/sec; in test [1] (setting [4]), 4.65 ± 0.99 dynes/cm^2/sec; in test [2] (CORM-2), 5.0±2.7 dynes/cm^2/sec. Also, the entries for the “TMRTG (time to maximum rate of thrombus generation)” value in test [1] (setting [3]), in test [1] (setting [4]) and in test [2] (100 mmol CORM-2) were 1.85 ± 0.04 min, 2.15 ± 0.56 min and 4.0 ± 2.3 min, respectively. In addition, the “TTG (total thrombus generation)” value in test [1] (setting [3]) was determined as 152 ± 7 dynes/cm^2; in test [1] (setting [4]) it was 88 ± 3 dynes/cm^2; in test [2] (100 mmol CORM-2), 232±56 dynes/cm^2.
